Data reported in US9024018B2, “3-substituted-8-substituted-3H-imidazo[5,1-d][1,2,3,5]tetrazin-4-one compounds and their use” (Pharminox Limited, priority 2009, dated 2015).

Legend:
Format in all cases: cell-based
U373M = experiment: MTT assay for 7-day toxicity, U373M glioma cells (stably transfected with MGMT, MGMT+); conditions: 7 day MTT assay, glioma line U373M
Experimental: (§1) The cell culture techniques were carried out in a Class II microbiological safety cabinet which was swabbed with 70% IMS in distilled water before each use. Glioma cells were routinely cultured in Costar tissue culture flasks in RPMI 1640 liquid medium (containing 0.3 g/L L-glutamine and 2 g/L sodium bicarbonate) supplemented with 10% heat inactivated FBS (55-59° C.) for 1 hour to denature complement proteins which would otherwise evoke a cellular immune response resulting in cell lysis, 1% non-essential amino acids, 50 μg/mL gentamicin and 400 μg/mL G418 (vector selection reagent). Colorectal and melanoma cells were maintained in RPMI 1640 supplemented with 10% FBS. MRC-5 cells were cultured in EMEM+10% FBS, 1% pen/strep, 1% non-essential amino acids, 1% HEPES (1M) and 1% sodium bicarbonate.
(§2) Cells were grown at 37° C. in a humidified incubator in an atmosphere comprising 95% air/5% CO2. Cells were sub-cultured when growth exceeded approximately 80% confluence, normally twice weekly. The medium was aspirated from the flask and approximately 0.8 mL trypsin-EDTA 1× solution added. The cells were re-incubated at 37° C. until they had visibly detached from the flask. The cells were re-suspended in 5 mL medium and 0.5-1 mL was transferred to a new flask (25 cm^2) with 7 mL culture medium. The cells were further incubated at 37° C. To minimize phenotypic drift, cells were disposed of once they had been subcultured 30 times. New batches of cells were thawed rapidly in 37° C. water bath once taken from liquid nitrogen storage and re-suspended in 10 mL of culture medium in a 25 cm^2 flask. Cells were passaged twice to allow normal growth to resume prior to use in experiments.
(§3) Most test compounds, including temozolomide, were prepared as 100 mM stock solutions in DMSO and stored at −20° C. for not more than 6 months.
(§4) MTT Assay for 7-Day Toxicity Assay
(§5) This assay was first described in Mosmann, T., 1983, “Rapid colorimetric assay for cellular growth and survival: Application to proliferation and cytotoxicity assays”, Journal of Immunological Methods, Vol. 65, Nos. 1-2, pp. 55-63.
(§6) Glioma cell lines, SNB19 and U373, both stably transfected with MGMT (i.e., SNB19M and U373M) or their respective vector controls (i.e., SNB19V and U373V); colorectal carcinoma cell lines, HCT116, HT29, and DLD1; melanoma cell line, SKMEL-28; breast cell line, MCF-7; and normal human fetal lung fibroblast cell line, MRC-5; were used at 60-80% confluence, during the logarithmic phase of growth.
(§7) Following harvesting with trypsin/EDTA, cells in suspension were gently syringed through a 23 gauge needle to obtain a near-single cell suspension. Cells were then seeded into 96-well plates at the desired density in 180 μL culture medium if only one test compound was to be added, or in 160 μL if two test compounds were to be added in combination. Cells were allowed to attach overnight by incubation at 37° C. in 95% air/5% CO2. For the 7 day assay, the cell seeding densities for the different cell lines were as follows: SNB19V, SNB19M: 650 cells/well; U373V, U373M: 650 cells/well; SNB19VR, U373VR: 650 cells/well; HCT116, DLD-1, SKMEL-28, MRC-5, MCF-7: 400 cells/well.
(§8) The two peripheral lanes of each plate were used as blank wells (cell free) and filled with 200 μL of medium in order to minimise medium evaporation from the plate. A separate time zero (T0) plate was set up alongside other plates. Serial dilutions in tissue culture medium of a 100 mM stock of test compound were prepared immediately before each assay to ten times the final concentrations required. 20 μL was added to each well (200 μL total media per well) to achieve final concentrations of 0.5 μM, 1 μM, 5 μM, 10 μM, 50 μM, 100 μM, 500 μM, and 1000 μM. A minimum of four wells received the same test compound concentration. To control wells, including those in the T0 plate, 20 μL of medium was added. […]

SNB19V = experiment: MTT assay for 7-day toxicity, SNB19V glioma cells (vector control, MGMT-); conditions: Glioma cell, 168 h, 7 day MTT assay, glioma line SNB19V
Experimental: as §1, §2, §3, §4, §5, §6, §7, §8

U373V = experiment: MTT assay for 7-day toxicity, U373V glioma cells (vector control, MGMT-); conditions: 7 day MTT assay, glioma line U373V
Experimental: as §1, §2, §3, §4, §5, §6, §7, §8

SNB19M = experiment: MTT assay for 7-day toxicity, SNB19M glioma cells (stably transfected with MGMT, MGMT+); conditions: 7 day MTT assay, glioma line SNB19M
Experimental: as §1, §2, §3, §4, §5, §6, §7, §8

| Compound | GI50 (U373M) [µM] | GI50 (U373M; Glioma cell, 168 h) [µM] | GI50 (SNB19V) [µM] | GI50 (U373V) [µM] | GI50 (U373V; Glioma cell, 168 h) [µM] | GI50 (SNB19M) [µM] | GI50 (SNB19M; Glioma cell, 168 h) [µM] |
| --- | --- | --- | --- | --- | --- | --- | --- |
| C#CCn1nnc2c(-c3nc(-c4nccs4)cs3)ncn2c1=O [WW-028, 8-(2,4′-Bithiazol-2′-yl)-3-(prop-2-ynyl)imidazo[5,1-d][1,2,3,5]tetrazin-4(3H)-one] | 35.1 | < 60 | 54 | 50 | < 75 | 56.5 | < 70 |
| Cn1nnc2c(-c3nc(-c4ccsc4)cs3)ncn2c1=O [WW-012, 3-Methyl-8-(4-(thiophen-3-yl)thiazol-2-yl)imidazo[5,1-d][1,2,3,5]tetrazin-4(3H)-one] |  | < 60 | < 45 |  | < 75 |  | < 70 |
| C#CCn1nnc2c(-c3nc(-c4cccc(Cl)c4)cs3)ncn2c1=O [WW-023, 8-(4-(3-Chlorophenyl)thiazol-2-yl)-3-(prop-2-ynyl)imidazo[5,1-d][1,2,3,5]tetrazin-4(3H)-one] |  | < 60 | < 45 |  | < 75 |  | < 70 |
| Cn1nnc2c(-c3nc(-c4ccccc4)cs3)ncn2c1=O [WW-002] |  | < 60 | < 45 |  | < 75 |  | < 70 |
| C#CCn1nnc2c(-c3nc(-c4ccccc4)c[nH]3)ncn2c1=O [WW-050, 8-(4-Phenyl-1H-imidazol-2-yl)-3-(prop-2-ynyl)imidazo[5,1-d][1,2,3,5]tetrazin-4(3H)-one] |  | < 60 | < 45 |  | < 75 |  | < 70 |
| C#CCn1nnc2c(-c3nc(-c4ccccc4)cs3)ncn2c1=O [WW-004, 8-(4-phenylthiazol-2-yl)-3-(prop-2-ynyl)imidazo[5,1-d][1,2,3,5]tetrazin-4(3H)-one] |  | < 60 | < 45 |  | < 75 |  | < 70 |
| C#CCn1nnc2c(-c3nnc(-c4ccccc4)o3)ncn2c1=O [WW-042, 8-(5-Phenyl-1,3,4-oxadiazol-2-yl)-3-(prop-2-ynyl)imidazo[5,1-d][1,2,3,5]tetrazin-4(3H)-one] |  | < 60 | < 45 |  | < 75 |  | < 70 |
| Cn1nnc2c(-c3nc(-c4cccs4)c[nH]3)ncn2c1=O [WW-048, 3-Methyl-8-(4-(thiophen-2-yl)-1H-imidazol-2-yl)imidazo[5,1-d][1,2,3,5]tetrazin-4(3H)-one] |  | < 60 | < 45 |  | < 75 |  | < 70 |
| COCn1nnc2c(/C=C/c3cccs3)ncn2c1=O [MM-004, (E)-3-(Methoxymethyl)-8-(2-(thiophen-2-yl)vinyl)imidazo[5,1-d][1,2,3,5]tetrazin-4(3H)-one] |  | 6.5 | 4.5 |  | 4.4 |  | 5.1 |
| C#CCNC(=O)c1csc(-c2ncn3c(=O)n(C)nnc23)n1 [WW-005, 2-(3-Methyl-4-oxo-3,4-dihydroimidazo[5,1-d][1,2,3,5]tetrazin-8-yl)-N-(prop-2-ynyl)thiazole-4-carboxamide] |  | < 60 | < 45 |  | < 75 |  | < 70 |
| C[S+]([O-])Cn1nnc2c(-c3nc(-c4ccsc4)cs3)ncn2c1=O (stereo not shown) [WW-033, 3-(methylsulfinylmethyl)-8-(4-(thiophen-3-yl)thiazol-2-yl)imidazo[5,1-d][1,2,3,5]tetrazin-4(3H)-one] |  | < 60 | < 45 |  | < 75 |  | < 70 |
| Cn1nnc2c(-c3nc(-c4ccccc4)co3)ncn2c1=O [WW-037, 3-Methyl-8-(4-phenyloxazol-2-yl)imidazo[5,1-d][1,2,3,5]tetrazin-4(3H)-one] |  | < 60 | < 45 |  | < 75 |  | < 70 |
| C[S+]([O-])Cn1nnc2c(-c3nc(-c4cccs4)cs3)ncn2c1=O (stereo not shown) [WW-036, 3-(methylsulfinylmethyl)-8-(4-(thiophen-2-yl)thiazol-2-yl)imidazo[5,1-d][1,2,3,5]tetrazin-4(3H)-one] |  | < 60 | < 45 |  | < 75 |  | < 70 |
| Cn1nnc2c(-c3nc4ccccc4[nH]3)ncn2c1=O [WW-062, 8-(1H-Benzo[d]imidazol-2-yl)-3-methylimidazo[5,1-d][1,2,3,5]tetrazin-4(3H)-one] |  | < 60 | < 45 |  | < 75 |  | < 70 |
| C#CCn1nnc2c(C(N)=S)ncn2c1=O [TT-001, 4-oxo-3-(prop-2-ynyl)-3,4-dihydroimidazo[5,1-d][1,2,3,5]tetrazine-8-carbothioamide] |  | 53.4 | 63.2 |  | 42.3 |  | 54.7 |
| C#CCn1nnc2c(C(=N)NCC(=O)OC)ncn2c1=O [SS-001, Methyl-2-(4-oxo-3-(prop-2-ynyl)-3,4-dihydroimidazo[5,1-d][1,2,3,5]tetrazine-8-carboximidamido)acetate hydroiodide] |  | 55.1 | 59 |  | 51.2 |  | 52.7 |
